Measurements as given in patent publication US7264956B2, “Compounds and methods for inhibiting axillary malodour” (Givaudan SA, priority 2001, dated 2007).

Tests used:
Staphylococcus capitis = experiment: Cleavage of the natural malodour precursor by axilla isolate Ax1; assay type: cell-based; conditions: 500 ppm precursor, 24 h, 36° C., capillary GC
Description: (§1) The axillary flora of 8 panellists was isolated with the detergent-scrub method: A 6 cm^2 area of the axilla was scrubbed with a phosphate buffer at pH 7 containing 1% Tween 80. The samples were spread-plated on tryptic soy agar amended with 5 g/L of Tween 80 and 1 g/L of lecithin. Single isolates obtained after 48 h incubation were subcultured and characterised. A total of 24 individual strains were identified based on colony and cell morphology, gram-reaction, lipophilic growth, lipase reaction and API identification kits (bioMerieux, France; coryneforms with the API coryne kit and cocci with the ID Staph 32 kit). The strains were grown overnight in a liquid medium (Mueller-Hinton amended with 0.01% Tween 80), harvested by centrifugation and resuspended to a final OD600 of 1 in a semi-synthetic medium (Per litre: 3 g KH2PO4, 1.9 g K2HPO4, 0.2 g yeast extract, 0.2 g MgSO4, 1.4 g NaCl, 1 g NH4Cl, 10 mg MnCl2, 1 mg Fe3Cl2, 1 mg CaCl2). Aliquots of this stationary culture were then amended with a final concentration of 500 ppm of Nα-3-hydroxy-3-methyl-hexanoyl-L-glutamine (5% stock solution dissolved in methanol). After 24 h incubation (with shaking at 300 rpm; 36° C.) the samples were extracted and the amount of released 3-hydroxy-3-methyl-hexanoic acid was determined by capillary GC. […]

[1] = tested on: Staphylococcus epidermidis; experiment: Cleavage of the natural malodour precursor by axilla isolate Ax6; assay type: cell-based; conditions: 500 ppm precursor, 24 h, 36° C., capillary GC
Description: as §1

Micrococcus luteus = experiment: Cleavage of the natural malodour precursor by axilla isolate Ax9; assay type: cell-based; conditions: 500 ppm precursor, 24 h, 36° C., capillary GC
Description: as §1

Corynebacterium bovis = experiment: Cleavage of the natural malodour precursor by axilla isolate Ax3; assay type: cell-based; conditions: 500 ppm precursor, 24 h, 36° C., capillary GC
Description: as §1

Corynebacterium group G = experiment: Cleavage of the natural malodour precursor by axilla isolate Ax7; assay type: cell-based; conditions: 500 ppm precursor, 24 h, 36° C., capillary GC
Description: as §1

Corynebacterium jeikeium [2] = experiment: Cleavage of the natural malodour precursor by axilla isolate Ax15; assay type: cell-based; conditions: 500 ppm precursor, 24 h, 36° C., capillary GC
Description: as §1

Corynebacterium jeikeium [3] = experiment: Cleavage of the natural malodour precursor by axilla isolate Ax19; assay type: cell-based; conditions: 500 ppm precursor, 24 h, 36° C., capillary GC
Description: as §1

Corynebacterium striatum = experiment: Cleavage of the natural malodour precursor by axilla isolate Ax20; assay type: cell-based; conditions: 500 ppm precursor, 24 h, 36° C., capillary GC
Description: as §1

[4] = target: T1, enzyme extracted from Corynebacterium striatum A×20 (AMRE, Nα-acyl-glutamine-aminoacylase) (Corynebacterium striatum, UniProt Q8GGD4); experiment: Substrate specificity of the enzyme (capillary GC of released acid or alcohol); assay type: biochemical; conditions: 500 ppm in Buffer A, 24 h incubation
T1 construct: an enzyme may be isolated from cellular extracts obtained from wild-type bacterial strains; endogenous in cells; host or cells: Corynebacterium striatum Ax20 (DSM 14267), mechanically disrupted; crude extract or chromatographically purified enzyme
Description: To understand in detail the structural requirements of substrates, the enzyme extracted from Corynebacterium striatum A×20 was incubated with a wide variety of said compounds related to the originally isolated Nα-3-methyl-3-hydroxy-hexanoyl-L-glutamine present in sweat. Each compound was used at a concentration of 500 ppm in Buffer A, and analysis of released acid or alcohol was done by capillary GC after 24 h of incubation. First, different modifications at the N-terminus were tested.

T1 sequence (Q8GGD4 2-400): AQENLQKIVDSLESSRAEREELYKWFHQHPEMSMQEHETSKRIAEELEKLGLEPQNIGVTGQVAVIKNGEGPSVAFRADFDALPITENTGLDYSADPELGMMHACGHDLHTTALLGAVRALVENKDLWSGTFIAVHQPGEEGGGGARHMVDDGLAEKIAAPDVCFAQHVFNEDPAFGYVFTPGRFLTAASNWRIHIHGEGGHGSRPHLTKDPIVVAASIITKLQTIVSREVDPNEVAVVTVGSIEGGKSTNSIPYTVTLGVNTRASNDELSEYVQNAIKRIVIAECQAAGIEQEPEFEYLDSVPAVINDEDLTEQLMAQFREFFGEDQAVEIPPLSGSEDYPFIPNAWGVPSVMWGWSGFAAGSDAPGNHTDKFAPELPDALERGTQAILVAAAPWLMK

`CCCC(C)(O)CC(=O)N[C@@H](CCC(N)=O)C(=O)O` (stereo partly drawn) [compound 1, Nα-(3-hydroxy-3-methyl-hexanoyl)-L-glutamine] gave a 3-hydroxy-3-methyl-hexanoic acid released (Staphylococcus capitis) of 0 ppm, a 3-hydroxy-3-methyl-hexanoic acid released [1] of 0 ppm and a 3-hydroxy-3-methyl-hexanoic acid released (Micrococcus luteus) of 0 ppm. It also gave a 3-hydroxy-3-methyl-hexanoic acid released (Corynebacterium bovis) of 0 ppm, a 3-hydroxy-3-methyl-hexanoic acid released (Corynebacterium group G) of 0 ppm and a 3-hydroxy-3-methyl-hexanoic acid released (Corynebacterium jeikeium [2]) of 37.4 ppm. The 3-hydroxy-3-methyl-hexanoic acid released (Corynebacterium jeikeium [3]) was 105.1 ppm, the 3-hydroxy-3-methyl-hexanoic acid released (Corynebacterium striatum) was 262.7 ppm and the Cleavage by enzyme [4] was “++ (++ cleavage 10–50%)”.
